Experiments:
CITED1+ progenitors [1] = conditions: serum free medium; BIO 2 μM, CHIR99021 3 μM; cited from earlier work
CITED1+ progenitors [2] = assay: Aggregate culture tubulogenesis of purified CITED1+ progenitors; assay type: cell-based, mouse
Protocol: Cell culture. CITED1+ progenitors were purified from NZCs derived from E17.5 kidneys as previously described (Brown et al., 2011b; Brown et al., 2013). CITED1+ progenitors were cultured in monolayer on hESC qualified MatrigelTM coated plates (Corning). For human or mouse passage, cells were dissociated by incubation with TrypLE (Life Technologies) for 2 minutes at 37 C, washed and spun 2× at 300 g in autoMACs running buffer (Miltenyi) prior to resuspension in NPEM as described in Table 1. NPEM is changed every 2 days. Cells were differentiated in aggregate culture with CHIR (3 μM) in medium as previously described (Brown et al., 2013). To understand if these observations could be extrapolated to CITED1+ cells in culture, a series of experiments was performed upon nephron progenitor cells isolated from embryonic mouse kidneys. Using a previously developed isolation protocol, CITED1+ progenitors were harvested from embryonic mouse kidneys between the ages of E16.5 to P1 at near 100% purity, allowing interrogation of the CITED1+ population at multiple time points (FIGS. 7A and 7B) (Brown et al., 2013). However, CITED1 progenitor purity dropped to 75% by P2, likely due to the loss of CITED1+ progenitors that occurred during cessation (FIG. 7B and FIG. 6B).

[3] = system: hESC-derived nephron progenitors; assay: Subtraction of individual components from NPEM, hESC-derived progenitors; assay type: cell-based, human; conditions: passage 3 progenitors, 3 days monolayer
Protocol: FIGS. 19A and 19B show nephron progenitor marker expression in human ES cell derived cultures grown in the absence of individual factors. In FIG. 19A, passage 3 progenitors were grown in NPEM in the absence of individual factors for 3 days in monolayer culture and immunostained for CITED1, SIX2, PAX2 and WT1. Antibody staining is shown in red and nuclear counterstaining with DAPI is shown in blue. In FIG. 19B, passage 3 progenitors were grown in NPEM in the absence of the indicated factors for 3 days in monolayer culture and immunostained for PAX2.
To understand if cellular growth in NPEM could be directly extrapolated to human cells, the above analysis was repeated with nephron progenitor cells derived from hESCs using the Takasato protocol (Takasato et al., 2014). CITED1+/SIX2+/PAX2+/WT1+ cells generated using this procedure lost expression of nephron progenitor markers following a single passage (FIG. 12A and FIG. 18A). […] When LDN was eliminated from the medium during the passage 2 culture, cells lost expression of PAX2 (FIG. 12C).

[4] = system: E17.5 CITED1+ progenitors; assay: Subtraction of individual factors from NPEM, mouse progenitors; assay type: cell-based; conditions: for competence for tubulogenesis after subtraction of the factor: 7 days in aggregate culture after monolayer; for progenitor growth and state in the absence of the factor: factor subtracted from NPEM, 3 days monolayer
Protocol: Flow cytometry. CITED1+ progenitors were purified from GFP+ kidneys isolated from Cited1creERT2-EGFP×ICR mice and cultured as described in the text. GFP fluorescence intensity and cell counts were collected on a FACSCalibur (BD) and data were analyzed using FlowJo software.
Using flow cytometry on E17.5 CITED1+ progenitors derived from Cited1creERT2-EGFP mice, the requirement for each of the culture additives to maintain cells in the undifferentiated state was evaluated by subtracting them from the medium (FIGS. 10A and 10B).
In the absence of LDN, nuclear localization of pSMAD1/5 increased dramatically, as did transcription of the SMAD response gene Cv2 (FIGS. 10C and 10D). […] In addition to losing CITED1 expression, progenitors cultured in the absence of LDN lost expression of characteristic marker genes including […], PAX2, WT1 and […], which may have helped to explain their lack of competence (FIG. 10F and FIG. 14). CITED1+ progenitors isolated from E13.5 kidneys also required LDN to expand while maintaining their competence to differentiate (FIG. 15).

SMAD1/5 phosphorylation = assay: pSMAD1/5 immunoblot of nephrogenic zone cells from LDN-treated newborn pups; assay type: in vivo, mouse; conditions: immunoblot of isolated NZCs; 3 mg/kg intraperitoneal twice daily P0 until P2
Source text: (§1) Fluorescent imaging of GFP expression in cap mesenchymes “C” shown. […] Cap mesenchymes are outlined with dotted red lines. […] Percent remaining after LDN treatment quantified in graph. NZCs were isolated from 4 kidney pairs per treatment group and pooled. […] Representative image from 4 kidney pairs per group shown. […] Data represent the mean±SD of qPCR technical replicates from 5 (DMSO) and 6 (LDN) pooled kidney pairs.
(§2) Mouse strains and treatments. Animal care was in accordance with the National Research Council Guide for the Care and Use of Laboratory Animals and protocols were approved by the Institutional Animal Care and Use Committee of Maine Medical Center. CITED1 progenitors were derived from kidneys of Cited1creERT2-EGFP×ICR (Institute for Cancer Research mice) heterozygous mice. Cited1creERT2-EGFP and Six2cre-EGFP mouse strains are maintained on an FVB/NJ background (Boyle et al., 2008a; Kobayashi et al., 2008).
(§3) LDN was selected over other similar analogs because it is highly specific for SMAD1/5 and has been successfully used in vivo (Yu et al., 2008). […] To measure the differentiation status of nephron progenitor cells, Cited1creERT2-EGFP and Six2cre-EGFP mouse strains were used, which dynamically expressed fluorescent protein under the control of Cited1 and Six2 (Boyle et al., 2008a; Kobayashi et al., 2008). […]

cap mesenchyme = assay: Cited1/Six2 EGFP reporter expression in cap mesenchyme of treated pups; assay type: in vivo, mouse; conditions: EGFP reporter mice, P2 and P3; untreated animals lost expression
Source text: as §1, §2, §3

ALK7 = molecular target: T1, ALK7 (Homo sapiens, UniProt Q8NER5); conditions: ALK7, not inhibited; cited from earlier work
T1 sequence (Q8NER5 21-493): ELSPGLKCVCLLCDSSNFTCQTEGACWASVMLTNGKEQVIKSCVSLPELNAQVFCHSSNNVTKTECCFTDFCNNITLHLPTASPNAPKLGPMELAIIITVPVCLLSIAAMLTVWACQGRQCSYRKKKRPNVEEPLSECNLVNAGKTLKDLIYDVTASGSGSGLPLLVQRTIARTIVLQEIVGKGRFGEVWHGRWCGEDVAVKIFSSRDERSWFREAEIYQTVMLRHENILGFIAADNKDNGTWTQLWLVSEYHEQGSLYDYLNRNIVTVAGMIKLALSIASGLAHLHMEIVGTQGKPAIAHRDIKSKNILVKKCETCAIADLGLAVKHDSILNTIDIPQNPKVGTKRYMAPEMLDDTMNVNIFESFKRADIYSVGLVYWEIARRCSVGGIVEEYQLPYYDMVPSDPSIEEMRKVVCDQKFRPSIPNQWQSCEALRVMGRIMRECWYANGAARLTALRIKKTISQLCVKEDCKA

SMILES | tubulogenesis in aggregate culture with WNT/β-catenin agonist (CITED1+ progenitors [1]) | tubulogenesis of P0 Cited1creERT2-EGFP progenitors (CITED1+ progenitors [2]; CHIR 3 μM, by day 4, GFP expression lost) | expression of CITED1, PAX2, SIX2 and WT1 after subtraction of the component [3] | competence for tubulogenesis after subtraction of the factor [4] | progenitor growth and state in the absence of the factor [4] | Cited1-driven GFP expression (CITED1+ progenitors [2]; LDN 75 nM added to CHIR 3 μM) | effect on CHIR-induced tubulogenesis (CITED1+ progenitors [2]; LDN 75 nM added to CHIR 3 μM) | reduction in SMAD1/5 phosphorylation compared to vehicle-treated controls (SMAD1/5 phosphorylation) | expression of Cited1 and Six2 in cap mesenchyme (cap mesenchyme) | IC50 (ALK7)
O=C1Nc2cc(Br)ccc2/C1=C1/Nc2ccccc2/C1=N\O [BIO] | robust tubulogenesis |  |  |  |  |  |  |  |  | 
Cc1c[nH]c(-c2cnc(NCCNc3ccc(C#N)cn3)nc2-c2ccc(Cl)cc2Cl)n1 [CHIR99021] | robust tubulogenesis | underwent tubulogenesis | critical dependence | still competent to undergo tubulogenesis | failed to expand but remained CITED1+ |  |  |  |  | 
c1ccc2c(-c3cnn4cc(-c5ccc(N6CCNCC6)cc5)cnc34)ccnc2c1 [LDN-193189] |  |  | critical dependence | unable to undergo differentiation | expanded but were largely CITED1 negative | maintained GFP expression | blocked tubulogenesis | greater than 95% | expression was maintained | > 500 nM
C[C@@H](N)[C@H]1CC[C@H](C(=O)Nc2ccncc2)CC1 [Y-27632] |  |  | critical dependence | still competent to undergo tubulogenesis | significant decrease in cell attachment |  |  |  |  | 
